In US20110195427A1, “SYSTEMS AND METHODS FOR DETECTING PREGNANCY” (priority 2010, published 2011):
“And” between values parts separate entries of the source, which are not always exact repeats. Equal entries are not always repeated. Where two headings read alike, the source gives them in different places.

How the values were obtained:
α-amylase = target: T1, α-amylase (Homo sapiens, UniProt P0DUB6); experiment: α-Amylase inhibition saliva screening (chromogenic substrate, 405 nm); type: biochemical; conditions: for Ave (absorbance at 405 nm): average of 4 readings; for absorbance at 405 nm, single reading: test compound prepared at 5,000 ppm, 37° C.
T1 sequence (P0DUB6 16-511): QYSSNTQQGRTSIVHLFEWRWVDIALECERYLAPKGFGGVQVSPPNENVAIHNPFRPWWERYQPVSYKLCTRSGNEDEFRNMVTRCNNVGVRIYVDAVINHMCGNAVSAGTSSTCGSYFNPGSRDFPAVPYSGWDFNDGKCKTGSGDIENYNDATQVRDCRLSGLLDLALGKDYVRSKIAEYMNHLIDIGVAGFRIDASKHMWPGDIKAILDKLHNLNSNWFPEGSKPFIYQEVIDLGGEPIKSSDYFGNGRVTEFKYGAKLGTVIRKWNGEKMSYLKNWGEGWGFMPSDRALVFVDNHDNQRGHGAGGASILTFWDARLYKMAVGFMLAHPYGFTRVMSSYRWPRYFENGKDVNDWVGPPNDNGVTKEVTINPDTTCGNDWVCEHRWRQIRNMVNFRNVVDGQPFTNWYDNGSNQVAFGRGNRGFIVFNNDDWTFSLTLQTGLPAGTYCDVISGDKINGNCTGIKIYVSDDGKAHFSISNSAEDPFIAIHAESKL
Excerpt: Further details of these five compounds may also be seen in Table 4.

peroxidase = experiment: Peroxidase assay in saliva (Amplex Red); type: biochemical
Protocol: To determine the effect of various GRAS compounds as inhibitors of peroxidase activity, a standard assay using Amplex® Red (Life Technologies), which releases a fluorescent oxidation product.
The test compounds, such as GRAS materials or cocktails of same, were prepared at a concentration of 500 ppm in distilled water. For the assay, 50 μl samples of test compounds were mixed with 20-30 μl of saliva (either “pooled” or “unpooled”) prior to the addition of Amplex® Red. […] Reactions were allowed to run for 30 minutes during these assays.

protease = conditions: natural protease inhibitors; cited from earlier work
[1] = 500 ppm, pooled and unpooled saliva controls, 30 minutes, FIGS. 26-29

What does the source list for “Aluminum potassium sulfate dodecahydrate [CDI-42]”?
Ave (absorbance at 405 nm) (α-amylase; Time 0 min): 0.92; absorbance at 405 nm, single reading (α-amylase; Time 0 min): 0.80 and 1.13 and 0.90 and 0.84; Ave (absorbance at 405 nm) (α-amylase; Time 5 min): 1.85; absorbance at 405 nm, single reading (α-amylase; Time 5 min): 1.65 and 2.15 and 1.80 and 1.81; Ave (absorbance at 405 nm) (α-amylase; Time 15 min): 2.29; absorbance at 405 nm, single reading (α-amylase; Time 15 min): 2.37 and 2.38 and 2.25 and 2.17; peroxidase inhibition (peroxidase; [1]): showed significant peroxidase inhibition capabilities

Which results are given for Aluminum sulfate hydrate [CDI-34]?
Ave (absorbance at 405 nm) (α-amylase; Time 0 min): 0.40; absorbance at 405 nm, single reading (α-amylase; Time 0 min, sulfate hydrate): 0.40 and 0.36 and 0.45; Ave (absorbance at 405 nm) (α-amylase; Time 5 min): 0.50; absorbance at 405 nm, single reading (α-amylase; Time 5 min, sulfate hydrate): 0.49 and 0.50 and 0.52; Ave (absorbance at 405 nm) (α-amylase; Time 15 min): 0.56; absorbance at 405 nm, single reading (α-amylase; Time 15 min, sulfate hydrate): 0.53 and 0.61 and 0.54 and 0.56

Which peroxidase inhibition (peroxidase; [1]) does the source give for COc1ccc(O)c(C(C)(C)C)c1 [CDI-039, 3-tert--butyl-hydroxyanisole] here?
The peroxidase inhibition was “showed significant peroxidase inhibition capabilities”.

With O=C(O)c1ccccc1 [CDI #16, Benzoic acid] as the molecule, how does the peroxidase inhibition (peroxidase) read?
Its peroxidase inhibition is “showed significant peroxidase inhibition capabilities”.

For Cn1c(=O)c2c(ncn2C)n(C)c1=O [CDI #33, Caffeine], which peroxidase inhibition (peroxidase; [1]) is on record?
The peroxidase inhibition was “showed significant peroxidase inhibition capabilities”.

B1: Soybeans: primary soybean protease inhibitor, 20.7-22.3 kDa (protein, UniProt P01070 25-205, looked up)
Trypsin inhibitor A: DFVLDNEGNPLENGGTYYILSDITAFGGIRAAPTGNERCPLTVVQSRNELDKGIGTIISSPYRIRFIAEGHPLSLKFDSFAVIMLCVGIPTEWSVVEDLPEGPAVKIGENKDAMDGWFRLERVSDDEFNNYKLVFCPQQAEDDKCGDIGISIDHDDGTRRLVVSKNKPLVVQFQKLDKESL
For B1, which Inhibitory power (protease) is on record?
Its Inhibitory power is 1.2 times times weight.
